Laboratory results taken from the Bradley open melting point set (2014).
Where “and” joins values, the source holds several entries; their conditions need not be identical. Equal entries are not always repeated. Structures can show the parent of a compound that is named as a salt.

| SMILES | melting point |
| --- | --- |
| CCc1nnc2cc(-c3ccccc3)[nH]n12 [3-ethyl-6-phenyl-5H-pyrazolo[5,1-c][1,2,4]triazole] | 189 °C |
| Brc1cccc(I)c1 [m-bromoiodobenzene] | -9 °C |
| Brc1ccc(Br)c(Br)c1 [1,2,4-tribromobenzene] | 43 °C (2×) and 44 °C |
| N#Cc1cccc(Cl)c1 [3-chlorobenzonitrile] | 41 °C |
| CCNC(=O)C(=O)NCC [N,N'-diethyloxamide] | 180 °C |
| C1COCOC1 [1,3-Dioxane] | -42 °C |
| NS(=O)(=O)c1cc(C(=O)O)c(NCc2ccco2)cc1Cl [furosemide] | 206 °C (2×) and 208 °C and 204 °C (2×) |
| CC(C)(C)Cl [tert-butyl chloride] | -26 °C |
| COC1OC(=O)c2ccccc21 (stereo not drawn) [3-methoxy-2-benzofuran-1(3H)-one] | 44 °C |
| O=[N+]([O-])c1cccc2ccccc12 [1-Nitronaphthalene] | 62 °C |
| Cc1cccc(N/N=C(\C#N)c2nc(-c3ccc(Cl)cc3)cs2)c1 | 158 °C |
| ClB(Cl)c1ccccc1 [dichlorophenylborane] | 7 °C |
| CCOC(=O)C(=O)OCC [Diethyl oxalate] | -41 °C |
| CC(C)(C)c1ccc2oc(-c3ccc(-c4nc5cc(C(C)(C)C)ccc5o4)s3)nc2c1 [2,5-bis(5-tert-butyl-2-benzoxazolyl)thiophene] | 201 °C |
| N#CCC(=O)O [cyanoacetic acid] | 67 °C |
| Cc1cc(C)c([N+](=O)[O-])c(C)c1Br [2-bromo-4-nitro-1,3,5-trimethylbenzene] | 60 °C |
| CCCCCCCCCCCCCCC [pentadecane] | 10 °C |
| CCCCCCCCCCCCSCCCCCCCCCCCC [di-n-dodecyl sulfide] | 40 °C |
| O=C(/C=C/c1ccc(-c2ccc(Br)cc2)o1)c1ccccc1 [(2E)-3-[5-(4-Bromophenyl)-2-furyl]-1-phenylprop-2-en-1-one] | 129 °C |
| COc1ccc(NC(=O)N(C)C)cc1Cl [Metoxuron] | 127 °C |
| COc1cccc(OC)c1O [2,6-dimethoxyphenol] | 55 °C |
| CCCC(=O)OCC [ethyl butyrate] | -93 °C |
| CC(=O)c1ccc(Cl)c(Cl)c1 [3',4'-dichloroacetophenone] | 74 °C |
| OC1CCCC1 [cyclopentanol] | -19 °C |
| BrC(c1ccccc1)(c1ccccc1)c1ccccc1 [bromotriphenylmethane] | 154 °C |

| SMILES | melting point |
| --- | --- |
| CCCCC[C@H](O)/C=C/[C@H]1[C@H](O)CC(=O)[C@@H]1C/C=C\CCCC(=O)O [prostaglandin E2] | 67 °C |
| CC(C)(C)OC(=O)N[C@H](COCc1ccccc1)C(=O)O [N-boc-o-benzyl-D-serine] | 62 °C |
| CC[C@@H](C(=O)[C@@H](C)[C@@H](O)[C@H](C)[C@@H]1O[C@@H]([C@@H](CC)C(=O)O)CC[C@@H]1C)[C@H]1O[C@]2(C=C[C@@H](O)[C@]3(CC[C@@](C)([C@H]4CC[C@](O)(CC)[C@H](C)O4)O3)O2)[C@H](C)C[C@@H]1C | 113 °C |
| COc1ccc(-c2nnn[nH]2)cc1 [5-(4-methoxyphenyl)-1h-tetrazole] | 237 °C |
| C=C(C)C(=O)OC(O)CC (stereo not drawn) [1-Hydroxypropyl methacrylate] | -58 °C |
| O=C(O)c1ccc(C(=O)C(F)(F)F)cc1 [4-(trifluoroacetyl)benzoic acid] | 178 °C |
| O=C(CBr)c1ccccc1 [2-bromoacetophenone] | 50 °C |
| Clc1cc(Cl)c(Cl)cc1Cl [1,2,4,5-Tetrachlorobenzene] | 139 °C |
| O=C(O)c1ccc2ncccc2c1 [quinoline-6-carboxylic acid] | 295 °C |
| O=[N+]([O-])c1ccc2c(c1)-c1cccc([N+](=O)[O-])c1C2 [1,6-dinitro-9H-fluorene] | 286 °C |
| COc1cc(/C=C/CO)ccc1O [coniferyl alcohol] | 76 °C |
| C=CCC1(C2C=CCCC2)C(=O)NC(=S)NC1=O (stereo not drawn) [thialbarbital] | 148 °C |
| CCOC(=O)C12C(c3ccccc3O[P+]1([O-])OCC)C1(C(=O)OCC)C2c2ccccc2O[P+]1([O-])OCC (stereo not drawn) | 218 °C |
| OC(C(F)(F)F)C(F)(F)F [1,1,1,3,3,3-Hexafluoropropan-2-ol] | -3 °C |
| Cc1cc(C)c(N=C=S)c(C)c1 [2,4,6-trimethylphenyl isothiocyanate] | 62 °C |
| Nc1ccccc1-c1ccccc1 [Biphenyl-2-amine] | 51.5 °C |
| CCc1ccc(C)cc1 [4-ethyltoluene] | -62 °C |
| CN(C)c1ccc(N=O)cc1 [N,N-Dimethyl-4-nitrosoaniline] | 86 °C |
| CC12CCC(=O)CC1CCC1C2CCC2(C)C(=O)CCC12O (stereo not drawn) [14-hydroxyandrostane-3,17-dione] | 199 °C |
| NCCNc1ccc([N+](=O)[O-])cn1 [N-(5-nitro-2-pyridyl)-1,2-ethanediamine] | 127 °C |
| CCCCC(=O)CCCC [5-nonanone] | -50 °C |
| CCCCCCCC/C=CCCCCCCCC(=O)O [oleic acid] | 14 °C |
| CCC(C)C1(CC)C(=O)NC(=O)NC1=O (stereo not drawn) [Butabarbital] | 166 °C |
| O=[N+]([O-])c1cc(Br)ccc1Br [1,4-dibromo-2-nitrobenzene] | 84 °C |
| CC(N)=S [Ethanethioamide] | 115 °C |

| SMILES | melting point |
| --- | --- |
| Nc1ncnc2c1ncn2[C@@H]1O[C@H](CO)[C@@H](O)[C@H]1O [adenosine] | 235 °C |
| O=C1CN=C(c2ccccc2F)c2cc(Cl)ccc2N1CC1CC1 [flutoprazepam] | 118 °C |
| OCCc1ccccc1 [2-phenylethanol] | -27 °C |
| O=C1Nc2ccc(Cl)cc2C(c2ccccc2Cl)=NC1O (stereo not drawn) [lorazepam] | 166 °C |
| CC12CCC(=O)C=C1CCC1C2C(O)CC2(C)C1CCC2(O)C(=O)CO (stereo not drawn) [hydrocortisone] | 223 °C |
| CCC1(CC)C(=O)NC(=O)N(C)C1=O [Metharbital] | 150 °C |
| c1ccc(-c2cccc(-c3ccccc3)c2)cc1 [m-terphenyl] | 87 °C |
| O=C(O)c1ccc(CO)cc1 [p-hydroxymethyl_benzoic_acid] | 182 °C |
| Cc1ccc(C)n1-c1ccc(C(F)(F)F)cc1 [OSM-S-27] | 71.5 °C |
| C/C=C\Br [cis-1-bromo-1-propene] | -113 °C |
| N#CCCCCCCCCC#N [sebaconitrile] | 6 °C |
| c1c[nH]nn1 [1h-1,2,3-triazole] | 24 °C |
| NC(=O)Cc1cccc2ccccc12 [1-naphthylacetamide] | 177 °C |
| CCCSc1ccc2[nH]c(NC(=O)OC)nc2c1 [albendazole] | 208 °C |
| CCCCCCCCOc1ccc(NC(=O)c2ccc(OC)cc2)cc1 [4-methoxy-N-[4-(octyloxy)phenyl]benzamide] | 153 °C |
| CCCC[C@H](NC(=O)OCc1ccccc1)C(=O)O [N-benzyloxycarbonyl-l-norleucine] | 57 °C |
| N#Cc1ccc2c(c1)OCO2 [Piperonylonitrile] | 94 °C |
| COC(=O)c1ccc(N)cc1 [methyl p-aminobenzoate] | 114 °C |
| CC=C(C)C(C)C [3,4-dimethyl-cis-2-pentene] | -114 °C |
| O=C(O)c1ccc([N+](=O)[O-])cc1C(=O)O [4-nitrophthalic acid] | 163 °C |
| N#Cc1cc(C#N)c(C#N)cc1C#N [Benzene-1,2,4,5-tetracarbonitrile] | 265 °C |
| OCCNc1ccccc1 [N-phenylethanolamine] | -30 °C |
| CC(O)CC(C)(C)O (stereo not drawn) [2-methyl-2,4-pentanediol] | -40 °C |
| O[C@H]1[C@H](O)[C@@H](O)[C@H](O)[C@@H](O)[C@H]1O [myo-inositol] | 226 °C |
| CCOC(=O)CCCCC(=O)OCC [diethyl_adipate] | -18 °C |

| SMILES | melting point |
| --- | --- |
| OCc1ccc(F)cc1Cl [2-chloro-4-fluorobenzyl alcohol] | 45 °C |
| CO[C@@]12[C@H](COC(N)=O)C3=C(C(=O)C(C)=C(N)C3=O)N1C[C@@H]1N[C@@H]12 [mitomycin c] | 360 °C |
| CN(C)c1ccc(N=O)cc1 [N,N-dimethyl-4-nitrosoaniline] | 86 °C |
| CC1=CC(=O)C=C(C)C1=O [2,6-dimethyl-p-benzoquinone] | 70 °C |
| BrC=Cc1ccccc1 [beta-bromostyrene, cis trans] | -8 °C |
| CC(=O)c1cccc(N=C=S)c1 [3-acetylphenyl isothiocyanate] | 24 °C |
| O=Cc1ccc(O)cc1 [4-hydroxybenzaldehyde] | 118 °C |
| Sc1nccs1 [2-mercaptothiazole] | 79 °C |
| CCCCC(=O)O [pentanoic acid] | -33.9 °C and -33.7 °C |
| Cc1ccc(N=C=O)cc1N=C=O [toluene-2,4-diisocyanate] | 21 °C |
| ClC(Cl)=C/C3C(C(=O)OCc2cccc(Oc1ccccc1)c2)C3(C)C (stereo not drawn) [Permethrin] | 34 °C |
| OB(O)c1ccccc1F [2-fluorobenzeneboronic acid] | 104 °C |
| CNCCO [2-(Methylamino)ethanol] | -4.5 °C |
| Cc1ccc(C)c(C(=O)O)c1 [2,5-dimethylbenzoic acid] | 134 °C |
| CC(=O)OC1CCC2C3CCC4CC(CC(=O)O)CCC4(C)C3CCC12C (stereo not drawn) [[17-(acetyloxy)androstan-3-yl]acetic acid] | 152 °C |
| CC(C)CCBr [1-bromo-3-methylbutane] | -112 °C |
| C[C@]12CC[C@@H]3c4ccc(O)cc4CC[C@H]3[C@@H]1CCC2=O [estrone] | 259 °C |
| CC(CN(C)C)CN1c2ccccc2CCc2ccccc21 (stereo not drawn) [trimipramine] | 45 °C |
| CC(=O)Oc1cccc(C)c1 [m-tolyl_acetate] | 12 °C |
| COc1ccc(NS(=O)(=O)c2ccc(N)cc2)nn1 [sulfamethoxypyridazine] | 182 °C |
| Cc1ccc(CCl)cc1 [4-methylbenzyl chloride] | 5 °C |
| Nc1ccc(F)cc1[N+](=O)[O-] [4-fluoro-2-nitroaniline] | 92 °C |
| CCCCCCCC(=O)O [octanoic_acid] | 17 °C |
